# Calls of active or inactive are those of the source. No cut-off for these calls is given here.
# Test system: Haemonchus contortus
# Assay: Nematocidal activity against Haemonchus contortus
# Format: functional
compound,measurement,value
COC(=O)/C=C/c1c[nH]c2cc(Br)ccc12,LD99,50 µg/mL
CCOC(=O)/C=C\c1c[nH]c2cc(Br)ccc12,LD99,42 µg/mL
CCOC(=O)/C=C/c1c[nH]c2cc(Br)ccc12,LD99,42 µg/mL
COC(=O)/C=C\c1c[nH]c2cc(Br)ccc12,LD99,50 µg/mL
CNc1c(N(C)C=O)c(=O)n(C)c(=O)n1C,Activity,inactive
